# Experimental data from patent publication US4312867A, “Antibacterial compounds, processes for their preparation and compositions containing them” (Beecham Group Limited, priority 1979, dated 1982).
# How the values were obtained:
# E. coli NCTC 10418 [1] = assay: MIC human bacteria (Table 1), serial dilution in nutrient agar; assay type: cell-based; settings: Escherichia coli, NCTC10418; E. coli NCTC 10418; nutrient agar with 5% chocolated horse blood; read-out: MIC
# E. coli ESS = assay: as above; assay type: cell-based; settings: Escherichia coli; E. coli ESS; nutrient agar with 5% chocolated horse blood; read-out: MIC
# P. mirabilis 889 = assay: as above; assay type: cell-based; settings: Proteus mirabilis; P. mirabilis 889; nutrient agar with 5% chocolated horse blood; read-out: MIC
# K. aerogenes A = assay: as above; assay type: cell-based; settings: Klebsiella aerogenes, nutrient agar with 5% chocolated horse blood
# Ps. aeruginosa 10662 = assay: as above; assay type: cell-based; settings: Pseudomonas aeruginosa, nutrient agar with 5% chocolated horse blood
# [2] = test system: Pasteurella multocida 1633; assay: as above; assay type: cell-based; settings: Pasteurella multocida, 1633
# [3] = test system: Haemophilus influenzae Q1; assay: as above; assay type: cell-based; settings: Haemophilus influenzae, Q1
# [4] = test system: Haemophilus influenzae Wy21; assay: as above; assay type: cell-based; settings: Haemophilus influenzae, WY21
# [5] = test system: Neisseria catarrhalis 1502; assay: as above; assay type: cell-based; settings: nutrient agar with 5% chocolated horse blood
# Bacillus subtilis 6633 = assay: as above; assay type: cell-based; settings: nutrient agar with 5% chocolated horse blood
# [6] = test system: Corynebacterium xerosis 9755; assay: as above; assay type: cell-based; settings: nutrient agar with 5% chocolated horse blood
# Sarcina lutea 8340 = assay: as above; assay type: cell-based; settings: nutrient agar with 5% chocolated horse blood
# Staph aureus Oxford [7] = assay: as above; assay type: cell-based; settings: Staphylococcus aureus, nutrient agar with 5% chocolated horse blood
# Staph aureus Russell = assay: as above; assay type: cell-based; settings: Staphylococcus aureus, nutrient agar with 5% chocolated horse blood
# Staph aureus W2827 = assay: as above; assay type: cell-based; settings: Staphylococcus aureus, nutrient agar with 5% chocolated horse blood
# Strep faecalis I = assay: as above; assay type: cell-based; settings: nutrient agar with 5% chocolated horse blood
# Strep pyogenes A 64/848 = assay: as above; assay type: cell-based; settings: nutrient agar with 5% chocolated horse blood
# Strep pyogenes B 2788 = assay: as above; assay type: cell-based; settings: nutrient agar with 5% chocolated horse blood
# Strep pyogenes C 2761 = assay: as above; assay type: cell-based; settings: nutrient agar with 5% chocolated horse blood
# Strep pneumoniae CN33 = assay: as above; assay type: cell-based; settings: nutrient agar with 5% chocolated horse blood
# E. coli NCTC 10418 [8] = assay: MIC veterinary bacteria (Table 2), serial dilution in agar; assay type: cell-based; settings: Escherichia coli, NCTC10418; E. coli NCTC 10418; diagnostic sensitivity test agar; read-out: MIC
# E. coli E1 = assay: as above; assay type: cell-based; settings: Escherichia coli, diagnostic sensitivity test agar
# S. dublin S7 = assay: as above; assay type: cell-based; settings: Salmonella enterica, diagnostic sensitivity test agar
# S. typhimurium S18 = assay: as above; assay type: cell-based; settings: Salmonella enterica, diagnostic sensitivity test agar
# Bord bronchiseptica B08 = assay: as above; assay type: cell-based; settings: diagnostic sensitivity test agar
# Bord bronchiseptica B09 = assay: as above; assay type: cell-based; settings: diagnostic sensitivity test agar
# Past multocida PA1 = assay: as above; assay type: cell-based; settings: diagnostic sensitivity test agar
# Past multocida PA2 = assay: as above; assay type: cell-based; settings: diagnostic sensitivity test agar
# [9] = test system: Erysipelothrix rhusiopathiae NCTC 8163; assay: as above; assay type: cell-based; settings: NCTC8163; Erysipelothrix rhusiopathiae NCTC 8163; diagnostic sensitivity test agar; read-out: MIC
# [10] = test system: Corynebacterium pyogenes CY1; assay: as above; assay type: cell-based; settings: Trueperella pyogenes, diagnostic sensitivity test agar
# [11] = test system: Staph aureus B4 (pen. resis); assay: as above; assay type: cell-based; settings: Staphylococcus aureus; Staph aureus B4 (pen. resis); diagnostic sensitivity test agar; read-out: MIC
# [12] = test system: Staph aureus 152 (pen. sens); assay: as above; assay type: cell-based; settings: Staphylococcus aureus, diagnostic sensitivity test agar
# Staph aureus Oxford [13] = assay: as above; assay type: cell-based; settings: Staphylococcus aureus; Staph aureus Oxford; diagnostic sensitivity test agar; read-out: MIC
# [14] = test system: Strep suis (group D) SPS11; assay: as above; assay type: cell-based; settings: diagnostic sensitivity test agar
# Strep uberis SPU1 = assay: as above; assay type: cell-based; settings: diagnostic sensitivity test agar
# Strep dysgalaciae SPD1 = assay: as above; assay type: cell-based; settings: diagnostic sensitivity test agar
# Strep agalactiae SPA1 = assay: as above; assay type: cell-based; settings: diagnostic sensitivity test agar
# M. suipneumoniae LABER = assay: anti-mycoplasmal MIC, Friis broth solidified with agarose (Table 4); assay type: cell-based; settings: Mesomycoplasma hyopneumoniae, 144 h, 6 days at 37° C.
# M. hyorhinis ATCC 25021 = assay: as above; assay type: cell-based; settings: Mesomycoplasma hyorhinis, ATCC25021, 144 h, 6 days at 37° C.
# [15] = test system: M. bovigenitalium ATCC 14173; assay: as above; assay type: cell-based; settings: 144 h
# M. pneumoniae ATCC 15492 = assay: as above; assay type: cell-based; settings: Mycoplasmoides pneumoniae, ATCC15492, 144 h, 6 days at 37° C.
# [16] = Serum binding by ultrafiltration of porcine serum; assay type: in vitro ADME; settings: pig, 8 mcg/ml, microbiological assay, read-out: % bound to pig serum (converted)
# Description: Serum binding was assessed by ultrafiltration of porcine serum containing compounds at 8 mcg/ml, and through an Amicon CF50A ultrafiltration cone. Separation of ultrafiltrate was achieved by centrifugation. Unbound concentrations of compound were measured in the ultrafiltrate by microbiological assay (B. subtilis ATCC 6633) against standards prepared in saline.
smiles,measurement,setting,value
"C/C(=C\C(=O)OCCCS(=O)(=O)N(C)C)CC1OCC(CC2OC2C(C)C(C)O)C(O)C1O (stereo not drawn) [Example 4, 3-N,N-Dimethylsulphamoylpropyl monate A]",MIC,E. coli NCTC 10418 [1],> 100 µg/mL
same,MIC,E. coli ESS,2.5 µg/mL
same,MIC,P. mirabilis 889,> 100 µg/mL
same,MIC,K. aerogenes A,> 100 µg/mL
same,MIC,Ps. aeruginosa 10662,> 100 µg/mL
same,MIC,[2],0.5 µg/mL
same,MIC,[3],0.1 µg/mL
same,MIC,[4],0.1 µg/mL
same,MIC,[5],1 µg/mL
same,MIC,Bacillus subtilis 6633,2.5 µg/mL
same,MIC,[6],No Growth
same,MIC,Sarcina lutea 8340,No Growth
same,MIC,Staph aureus Oxford [7],10 µg/mL
same,MIC,Staph aureus Russell,10 µg/mL
same,MIC,Staph aureus W2827,10 µg/mL
same,MIC,Strep faecalis I,> 100 µg/mL
same,MIC,Strep pyogenes A 64/848,2.5 µg/mL
same,MIC,Strep pyogenes B 2788,2.5 µg/mL
same,MIC,Strep pyogenes C 2761,5 µg/mL
same,MIC,Strep pneumoniae CN33,1 µg/mL
same,MIC,E. coli NCTC 10418 [8],> 80 µg/mL
same,MIC,E. coli E1,> 80 µg/mL
same,MIC,S. dublin S7,> 80 µg/mL
same,MIC,S. typhimurium S18,> 80 µg/mL
same,MIC,Bord bronchiseptica B08,80 µg/mL
same,MIC,Bord bronchiseptica B09,20 µg/mL
same,MIC,Past multocida PA1,0.625 µg/mL
same,MIC,Past multocida PA2,0.312 µg/mL
same,MIC,[9],> 80 µg/mL
same,MIC,[10],> 80 µg/mL
same,MIC,[11],5 µg/mL
same,MIC,[12],2.5 µg/mL
same,MIC,Staph aureus Oxford [13],2.5 µg/mL
same,MIC,[14],40 µg/mL
same,MIC,Strep uberis SPU1,2.5 µg/mL
same,MIC,Strep dysgalaciae SPD1,2.5 µg/mL
same,MIC,Strep agalactiae SPA1,2.5 µg/mL
same,MIC,M. suipneumoniae LABER,500 µg/mL
same,MIC,M. hyorhinis ATCC 25021,250 µg/mL
same,MIC,[15],50 µg/mL
same,MIC,M. pneumoniae ATCC 15492,5000 µg/mL
same,fraction unbound,[16],0.053
